# From patent US9150575B2, “Piperidinylpyrazolopyridine derivative” (Daiichi Sankyo Company, Limited, priority 2012, dated 2015)
# pEC50: −log10 of the molar value.
# Biological target: T1, LCAT (Homo sapiens, UniProt P04180)
# T1 construct: The obtained fraction was dialyzed against phosphate-buffered saline (pH 7.4) and used as an enzyme source and an acceptor for LCAT; from tissue; host or cells: HDL3 fraction (1.125<specific gravity<1.210 g/mL) of plasma from a healthy person
# T1 sequence (P04180 25-440): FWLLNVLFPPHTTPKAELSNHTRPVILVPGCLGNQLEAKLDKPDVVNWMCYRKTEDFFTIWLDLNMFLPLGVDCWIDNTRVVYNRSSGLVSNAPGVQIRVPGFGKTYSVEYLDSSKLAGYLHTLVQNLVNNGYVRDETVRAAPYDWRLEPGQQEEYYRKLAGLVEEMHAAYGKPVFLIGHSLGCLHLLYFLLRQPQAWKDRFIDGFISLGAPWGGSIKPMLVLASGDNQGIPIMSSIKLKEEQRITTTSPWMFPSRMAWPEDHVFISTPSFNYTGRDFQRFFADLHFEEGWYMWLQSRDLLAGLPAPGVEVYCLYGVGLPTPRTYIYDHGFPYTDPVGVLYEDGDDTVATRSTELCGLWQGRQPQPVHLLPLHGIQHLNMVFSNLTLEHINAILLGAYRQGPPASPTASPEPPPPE
# Test: LCAT Activity Measurement (In Vitro)
# Type: biochemical
# Details: EC50 of LCAT activation; HDL3 fraction from plasma of a healthy person as enzyme source and acceptor; [14C]cholesterol; 37° C., approximately 16 hours
# Protocol: A fraction composed of HDL3 (1.125<specific gravity<1.210 g/mL) was obtained from the plasma of a healthy person by density gradient centrifugation. The obtained fraction was dialyzed against phosphate-buffered saline (pH 7.4) and used as an enzyme source and an acceptor for LCAT. Each test drug was prepared by dissolution in dimethyl sulfoxide. [14C]Cholesterol containing DTNB (Ellman's reagent, final concentration: 0.5 mM), mercaptoethanol (final concentration: 12.5 mM), and 0.6% bovine serum albumin was added to phosphate-buffered saline (pH 7.4) containing 1 mg/mL HDL3, and the test drug was further added thereto at varying concentrations to adjust the whole amount to 80 μL. This mixture was incubated at 37° C. for approximately 16 hours. Then, a mixed solution of hexane and isopropanol (mixing ratio=3:2) was added thereto to stop the reaction. After stirring, the hexane layer was collected, and this layer was evaporated to dryness. A chloroform solution (concentration: 10 mg/mL) was added thereto, and the mixture was spotted onto a thin-layer silica gel plate and developed using a mixed solution of hexane, diethyl ether, and ethyl acetate (mixing ratio=85:15:2). The radioactivity of a portion corresponding to cholesterol oleate was measured using an imaging analyzer BAS-2500 (manufactured by Fujifilm Corp.). A sample non-supplemented with the test drug was similarly treated and assayed. The EC50 value of LCAT activation was calculated according to the expression given below relative to LCAT activity in the sample non-supplemented with the test drug.
# wherein X represents the logarithm of the concentration of the test drug;
# Y represents the responsiveness (LCAT activity) of the test drug;
# Top represents the maximum value (maximum plateau);
# Bottom represents the minimum value (minimum plateau); and
# EC50 represents the 50% effective concentration.
row,pEC50,SMILES
1,6.82,"O=C1CC(O)(C(F)(F)F)c2c(C3CCN(c4nc5ccccc5o4)CC3)n[nH]c2N1 (stereo not drawn) [Example 24, 3-[1-(1,3-Benzoxazol-2-yl)piperidin-4-yl]-4-hydroxy-4-(trifluoromethyl)-1,4,5,7-tetrahydro-6H-pyrazolo[3,4-b]pyridin-6-one]"
2,7.08,"CCc1ccc(N2CCC(c3n[nH]c4c3C(O)(C(F)(F)F)CC(=O)N4)CC2)nc1 (stereo not drawn) [Example 73, 3-[1-(5-Ethylpyridin-2-yl)piperidin-4-yl]-4-hydroxy-4-(trifluoromethyl)-1,4,5,7-tetrahydro-6H-pyrazolo[3,4-b]pyridin-6-one]"
3,6.28,"O=C1CC(O)(C(F)(F)F)c2c(C3CCN(c4nc(C5CC5)no4)CC3)n[nH]c2N1 (stereo not drawn) [Example 71, 3-[1-(3-Cyclopropyl-1,2,4-oxadiazol-5-yl)piperidin-4-yl]-4-hydroxy-4-(trifluoromethyl)-1,4,5,7-tetrahydro-6H-pyrazolo[3,4-b]pyridin-6-one]"
4,6.28,"O=C1CC(O)(C(F)(F)F)c2c(C3CCN(c4ccccn4)CC3)n[nH]c2N1 (stereo not drawn) [Example 2, 4-Hydroxy-3-[1-(pyridin-2-yl)piperidin-4-yl]-4-(trifluoromethyl)-1,4,5,7-tetrahydro-6H-pyrazolo[3,4-b]pyridin-6-one]"
5,6.44,"O=C1CC(O)(C(F)(F)F)c2c(C3CCN(c4ncc(C(F)(F)F)cn4)CC3)n[nH]c2N1 (stereo not drawn) [Example 44, 4-Hydroxy-4-(trifluoromethyl)-3-{1-[5-(trifluoromethyl)pyrimidin-2-yl]piperidin-4-yl}-1,4,5,7-tetrahydro-6H-pyrazolo[3,4-b]pyridin-6-one]"
6,7.02,"O=C1CC(O)(C(F)(F)F)c2c(C3CCN(c4nnc(C(F)(F)F)s4)CC3)n[nH]c2N1 (stereo not drawn) [Example 47, 4-Hydroxy-4-(trifluoromethyl)-3-{1-[5-(trifluoromethyl)-1,3,4-thiadiazol-2-yl]piperidin-4-yl}-1,4,5,7-tetrahydro-6H-pyrazolo[3,4-b]pyridin-6-one]"
7,5.77,"COc1cncc(N2CCC(c3n[nH]c4c3C(O)(C(F)(F)F)CC(=O)N4)CC2)c1 (stereo not drawn) [Example 40, 4-Hydroxy-3-[1-(5-methoxypyridin-3-yl)piperidin-4-yl]-4-(trifluoromethyl)-1,4,5,7-tetrahydro-6H-pyrazolo[3,4-b]pyridin-6-one]"
8,6.54,"Cc1ccnc(N2CCC(c3n[nH]c4c3C(O)(C(F)(F)F)CC(=O)N4)CC2)c1 (stereo not drawn) [Example 5, 4-Hydroxy-3-[1-(4-methylpyridin-2-yl)piperidin-4-yl]-4-(trifluoromethyl)-1,4,5,7-tetrahydro-6H-pyrazolo[3,4-b]pyridin-6-one]"
9,5.94,"O=C1CC(O)(C(F)(F)F)c2c(C3CCN(c4ncccc4C(F)(F)F)CC3)n[nH]c2N1 (stereo not drawn) [Example 9, 4-Hydroxy-4-(trifluoromethyl)-3-{1-[3-(trifluoromethyl)pyridin-2-yl]piperidin-4-yl}-1,4,5,7-tetrahydro-6H-pyrazolo[3,4-b]pyridin-6-one]"
10,6.29,"O=C1CC(O)(C(F)(F)F)c2c(C3CCN(c4nc(Cl)ccc4C(F)(F)F)CC3)n[nH]c2N1 (stereo not drawn) [Compound 98-b, 3-{1-[6-chloro-3-(trifluoromethyl)pyridin-2-yl]piperidin-4-yl}-4-hydroxy-4-(trifluoromethyl)-1,4,5,7-tetrahydro-6H-pyrazolo[3,4-b]pyridin-6-one]"
11,7.15,"N#Cc1cncc(N2CCC(c3n[nH]c4c3C(O)(C(F)(F)F)CC(=O)N4)CC2)c1 (stereo not drawn) [Example 37, 5-{4-[4-Hydroxy-6-oxo-4-(trifluoromethyl)-4,5,6,7-tetrahydro-1H-pyrazolo[3,4-b]pyridin-3-yl]piperidin-1-yl}pyridine-3-carbonitrile]"
12,7.00,"CC(C)Oc1ccc(N2CCC(c3n[nH]c4c3C(O)(C(F)(F)F)CC(=O)N4)CC2)cn1 (stereo not drawn) [Example 57, 4-Hydroxy-3-{1-[6-(propan-2-yloxy)pyridin-3-yl]piperidin-4-yl}-4-(trifluoromethyl)-1,4,5,7-tetrahydro-6H-pyrazolo[3,4-b]pyridin-6-one]"
13,7.24,"COC(=O)c1nc(N2CCC(c3n[nH]c4c3C(O)(C(F)(F)F)CC(=O)N4)CC2)ccc1C(F)(F)F (stereo not drawn) [Example 77, Methyl 6-{4-[4-hydroxy-6-oxo-4-(trifluoromethyl)-4,5,6,7-tetrahydro-1H-pyrazolo[3,4-b]pyridin-3-yl]piperidin-1-yl}-3-(trifluoromethyl)pyridine-2-carboxylate]"
14,6.74,"N#Cc1cccc(N2CCC(c3n[nH]c4c3C(O)(C(F)(F)F)CC(=O)N4)CC2)n1 (stereo not drawn) [Example 22, 6-{4-[4-Hydroxy-6-oxo-4-(trifluoromethyl)-4,5,6,7-tetrahydro-1H-pyrazolo[3,4-b]pyridin-3-yl]piperidin-1-yl}pyridine-2-carbonitrile]"
15,6.85,"CN(C)c1cc(N2CCC(c3n[nH]c4c3C(O)(C(F)(F)F)CC(=O)N4)CC2)nc(C(F)(F)F)n1 (stereo not drawn) [Example 86, 3-{1-[6-(Dimethylamino)-2-(trifluoromethyl)pyrimidin-4-yl]piperidin-4-yl}-4-hydroxy-4-(trifluoromethyl)-1,4,5,7-tetrahydro-6H-pyrazolo[3,4-b]pyridin-6-one]"
16,6.42,"N#Cc1ccc(N2CCC(c3n[nH]c4c3C(O)(C(F)(F)F)CC(=O)N4)CC2)cc1 (stereo not drawn) [Example 35, 4-{4-[4-Hydroxy-6-oxo-4-(trifluoromethyl)-4,5,6,7-tetrahydro-1H-pyrazolo[3,4-b]pyridin-3-yl]piperidin-1-yl}benzonitrile]"
17,7.74,"O=C1CC(O)(C(F)(F)F)c2c(C3CCN(c4ccc(C(F)(F)F)cn4)CC3)n[nH]c2N1 (single isomer, unassigned; (-)) [Compound 49-1, (−)-4-Hydroxy-4-(trifluoromethyl)-3-{1-[5-(trifluoromethyl)pyridin-2-yl]piperidin-4-yl}-1,4,5,7-tetrahydro-6H-pyrazolo[3,4-b]pyridin-6-one]"
18,7.43,"N#Cc1cnc(N2CCC(c3n[nH]c4c3C(O)(C(F)(F)F)CC(=O)N4)CC2)cc1C(F)(F)F (stereo not drawn) [Example 95, 6-{4-[4-Hydroxy-6-oxo-4-(trifluoromethyl)-4,5,6,7-tetrahydro-1H-pyrazolo[3,4-b]pyridin-3-yl]piperidin-1-yl}-4-(trifluoromethyl)pyridine-3-carbonitrile]"
19,6.52,"COc1ccc(N2CCC(c3n[nH]c4c3C(O)(C(F)(F)F)CC(=O)N4)CC2)cn1 (stereo not drawn) [Example 32, 4-Hydroxy-3-[1-(6-methoxypyridin-3-yl)piperidin-4-yl]-4-(trifluoromethyl)-1,4,5,7-tetrahydro-6H-pyrazolo[3,4-b]pyridin-6-one]"
20,7.06,"CC(C)c1nc(N2CCC(c3n[nH]c4c3C(O)(C(F)(F)F)CC(=O)N4)CC2)cc(C(F)(F)F)n1 (stereo not drawn) [Example 88, 4-Hydroxy-3-{1-[2-(propan-2-yl)-6-(trifluoromethyl)pyrimidin-4-yl]piperidin-4-yl}-4-(trifluoromethyl)-1,4,5,7-tetrahydro-6H-pyrazolo[3,4-b]pyridin-6-one]"
21,6.38,"CN(C)C(=O)c1nc(N2CCC(c3n[nH]c4c3C(O)(C(F)(F)F)CC(=O)N4)CC2)ccc1C(F)(F)F (stereo not drawn) [Example 83, 6-{4-[4-Hydroxy-6-oxo-4-(trifluoromethyl)-4,5,6,7-tetrahydro-1H-pyrazolo[3,4-b]pyridin-3-yl]piperidin-1-yl}-N,N-dimethyl-3-(trifluoromethyl)pyridine-2-carboxamide]"
22,7.89,"O=C1CC(O)(C(F)(F)F)c2c(C3CCN(c4cnc(C(F)(F)F)nc4)CC3)n[nH]c2N1 (stereo not drawn) [Example 65, 4-Hydroxy-4-(trifluoromethyl)-3-{1-[2-(trifluoromethyl)pyrimidin-5-yl]piperidin-4-yl}-1,4,5,7-tetrahydro-6H-pyrazolo[3,4-b]pyridin-6-one]"
23,6.51,"O=C1CC(O)(C(F)(F)F)c2c(C3CCN(c4nc(-c5ccccc5)cs4)CC3)n[nH]c2N1 (stereo not drawn) [Example 90, 4-Hydroxy-3-[1-(4-phenyl-1,3-thiazol-2-yl)piperidin-4-yl]-4-(trifluoromethyl)-1,4,5,7-tetrahydro-6H-pyrazolo[3,4-b]pyridin-6-one]"
24,5.62,"O=C1CC(O)(C(F)(F)F)c2c(C3CCN(c4cccnc4)CC3)n[nH]c2N1 (stereo not drawn) [Example 27, 4-Hydroxy-3-[1-(pyridin-3-yl)piperidin-4-yl]-4-(trifluoromethyl)-1,4,5,7-tetrahydro-6H-pyrazolo[3,4-b]pyridin-6-one]"
